# Laboratory results as given in patent publication EP0351625B1, “Anti-HIV activity of BV-3608” (Bristol-Myers Squibb Company, priority 1988, dated 1990).
# Experiments:
# [1] = test system: MOLT-4 and MOLT-4/HTLV-IIIB; experiment: Cell fusion / giant cell formation in MOLT-4 and MOLT-4/HTLV-IIIB co-culture (cell size distribution); type: cell-based; conditions: 25 µg/ml in medium, mixed culture; 11.8% without compound
# Description: The effect on cell fusion which results in cell to cell infection and giant cell formation may be examined as follows. MOLT-4 and its virus-producing cell, MOLT-4/HTLV-IIIB are mixed in 1:1 in proportion of cell number and adjusted to a final concentration of 5 x 10⁵ cells/ml with the medium containing various concentrations of compounds, and then incubated for 10 hours in a CO₂ incubator. After incubation, the distribution of cell size is measured by a cell multisizer (Coulter Electronics Ltd., Luton, England). Viable cells are counted by trypan blue dye exclusion method. Giant cell formation is observed under a phase- contrast microscope. Particles with diameters of from 3 to 100 µm in diameter are observed in the co-cultures. Only those particles having a diameter of more than 9 µm are considered to be cells. Cell sizes in each of the cultures of MOLT-4 or MOLT-4/HTLV-IIIB are similar, and the proportion of cell particles with 12-14 µm diameters are virtually the same in each culture. The percentage of cell particles having more than a 20 µm diameter was 2.7% and in the MOLT-4 cell culture, and 2.4% in the MOLT-4/HTLV-IIIB cell culture. […] This is a reflection of the infectivity by cell-to-cell fusion of the MOLT-4/HTLV-IIIB cells for the uninfected MOLT-4 cells. The test method measures the ability of test substances to prevent or reduce this effect. […]
# [2] = Cytotoxicity on uninfected MT-4 cells (viable cell count, trypan blue dye exclusion); type: cell-based; conditions: human
# Description: (§1) MT-4 cells are maintained at 37°C in the complete medium. Two days before the start of an experiment, viable cells are counted by the trypan blue dye exclusion method and the concentration is adjusted to 30 x 10⁴ cells/mL.
# The test substance is dissolved in dimethylsulfoxide (DMSO) and the solutions are then diluted with complete medium to concentrations of 10, 5.0, 2.5, and 1.25 mcg/ml to provide test solutions. Matched portions of HTLV-IIIB infected and uninfected MOLT-4 cells are adjusted to 60 x 10⁴ cells/mL and mixed with the same volume of diluted test solution to make the final concentration of 30 x 10⁴ cells/mL, and 5.0, 2.5, […], and 0.63 mcg/mL of test substance. To measure anti-HIV activity, the number of viable cells surviving in the test medium are counted by the trypan blue dye-exclusion method on day 3 and day 6 after infection of the cells.
# Figure 1 illustrates the inhibition of cytopathic effect of the HIV virus on MT-4 cells by Compound No. 28567. First, the unshaded bars show the lack of cytotoxicity of the compound on uninfected MT-4 cells. Only at concentrations of 28567 in excess of 30 µg/ml is a noticeable or consistent reduction in the number of cells observed after 3 or 6 days, and even at 120 mg/ml, 60-70% of the cells survive.
# [3] = test system: HTLV-IIIB infected MT-4 cells; experiment: Inhibition of cytopathic effect of HIV on infected MT-4 cells (viable cell count); type: cell-based; conditions: Human immunodeficiency virus 1, IIIB, MT4; HIV-infected MT-4 cells, 3 or 6 days (Figure 1); read-out: concentration affording virtually complete protection of MT-4 cells
# Description: The cell line MT-4 disclosed by Harada, S. et al., in Virology, Vol. 146, pp. 272-281 (1985) is appropriate. This cell line features rapid and efficient replication of HTLV-III, followed by cytolysis.
# as §1
# Infection of the MT-4 cells with the virus is made at a multiplicity of infection (MOI) of 0.002. MT-4 cells (60 x 10⁴ cells/mL) are mixed with a 1:100 dilution of the viral preparation and incubated for 1 hour at 37°C for adsorption of the virus. After adsorption, HTLV-IIIB infected MT-4 cells are washed once and resuspended with complete medium. […]
# The test substance is dissolved in dimethylsulfoxide (DMSO) and the solutions are then diluted with complete medium to concentrations of 10, 5.0, 2.5, and 1.25 mcg/ml to provide test solutions. […] To measure anti-HIV activity, the number of viable cells surviving in the test medium are counted by the trypan blue dye-exclusion method on day 3 and day 6 after infection of the cells. […]
# [4] = Acute toxicity in mice after single intravenous and intramuscular administrations; conditions: mouse, in vivo
# Description: The acute toxicity of Compound No. 28567 was determined in mice after single intravenous and intramuscular administrations.
smiles,measurement,setting,value
CN[C@@H]1[C@H](O[C@@H]2OC[C@@H](O)[C@H](O)[C@H]2O)[C@@H](O)[C@H](O[C@H]2c3cc(C)c(C(=O)N[C@H](C)C(=O)O)c(O)c3-c3c(cc4c(c3O)C(=O)c3cc(OC)cc(O)c3C4=O)[C@@H]2O)O[C@@H]1C [Compound No. 28567],proportion of particles exceeding 20 µm,[1],2.7%
same,MCC,"[2]; after 3 or 6 days (Figure 1), read-out: concentration at which a noticeable or consistent reduction in the number of cells is observed",> 30 µg/mL
same,viability,"[2]; at 120 mg/ml (so in the source), 3 or 6 days, read-out: cells survive",60 to 70%
same,minimal effective concentration,[3],≥ 3.5 µg/mL
same,sign of toxicity,[4]; 400 mg/kg,no sign of toxicity
same,LD50,"[4]; iv, read-out: LD₅₀",140 mg/kg
